This passage reports objective response and HER2 activation results from patent publication US20170285044A1, “METHODS FOR PREDICTING AND IMPROVING THE SURVIVAL OF GASTRIC CANCER PATIENTS” (Pierian Holdings, Inc., priority 2011, published 2017).

For test [1], the system named is unselected gastric cancer patients. Particulars: monotherapy; Jhawer et al., 2008; cited from earlier work.
Test [2] has as its system MET-amplified SNU484 cells. It is filed as cell-based, human. Particulars: FIG. 12.
Procedure: (§1) Multiple Drug Effect Analysis: ˜1 X10^4 cells were plated in 24-well plate and grown in appropriate growth media. Lapatinib, cMET inhibitor or both agents (combo) were added at 1 μM concentration for 4 hrs and lysed for subsequent pathway profiling.
(§2) Immuno-microarray slides were rinsed 2× with TB ST (50 mM Tris/150 mM NaCl/0.1% Tween-20, pH 7.2-7.4), blocked with 80 μL Whatman Blocking Buffer lhr at RT, then washed 2× with TBST. Serially diluted lysate controls in 80 μL dilution buffer (2% BSA/0.1% TritonX-100/TBS, pH 7.2-7.4) and samples were added to designated sub-arrays on slides, then incubated 1 hour at RT. Slides were washed 4× (3 min. each), and detector Abs were added in 80 μL of reaction buffer and incubated for 2 hours at RT. After washing slides with TB ST to remove unbound detector Abs, 80 μL of biotin-tyramide solution (5 μg/m1 in 50 mM glucose/PBS) prepared from 400 μg/mL in ethanol solution (Perkin-Elmer Life Science) was added and incubated 15 min in darkness. Glucose-oxidase (GO)/HRP-mediated tyramide signal amplification process was terminated by washing with TBST 4×, 3 min each. Local deposition of biotin-tyramide was detected by incubation with streptavidin (SA)-Alexa647 (Invitrogen) at 0.5 μg/mL in 2% BSA/0.1% Triton/TBS for 40 min. Upon completion of incubation, slides were washed 4× with TBST, dried and kept in darkness until imaged via microarray scanner. […]
Test [3] has as its system NCI-87 cells. It is filed as cell-based, human. Conditions: without altering total HER2 levels, FIG. 12.
Procedure: as §1, §2

In the case of `COc1cc2c(Oc3ccc(NC(=O)C4(C(=O)Nc5ccc(F)cc5)CC4)cc3F)ccnc2cc1OCCCN1CCOCC1` [foretinib], the objective response entry in test [1] is listed as “failed to demonstrate an objective response”.
With `CS(=O)(=O)CCNCc1ccc(-c2ccc3ncnc(Nc4ccc(OCc5cccc(F)c5)c(Cl)c4)c3c2)o1` [lapatinib], the HER2 activation result is recorded as “unable to do so” in test [2] and “abolished” in test [3].
